The target in series [1] is T1, JNK3 (Homo sapiens, UniProt P53779).
T1 construct: purchased Eurofins Pharma Discovery (KINOMEscan)
Further details: method as in PMID 27027242, PMID 11717429, PMID 16759099, PMID 21666839. Conditions: Figure 1; ref [25],[32],[33],[34]; cited from earlier work.

In series [2] the target is T2, JNK1 (Homo sapiens, UniProt P45983).
T2 construct: purchased Eurofins Pharma Discovery (KINOMEscan)
Further details: method as in PMID 27027242, PMID 11717429, PMID 16759099, PMID 21666839. Conditions: Figure 1; ref [25],[32],[33],[34]; cited from earlier work.

In series [3] the test system is IL-6. Further details: method as in PMID 22434859. Conditions: LPS-induced; ref [35]; read-out: MonoMac-6 Cell IL-6 IC50; cited from earlier work.
The test system of series [4] is IL-6. In words: LPS-induced IL-6 production in MonoMac-6 cells (ELISA). Conditions: Homo sapiens, MONO-MAC-6; 30 min pretreatment, 250 ng/mL LPS for 24 h; read-out: MonoMac-6 Cell IL-6 IC50. It is filed as cell-based. As for the experimental part:
(§1) All cells were cultured at 37 °C in a humidified atmosphere containing 5% CO2. THP1-Blue cells obtained from InvivoGen (San Diego, CA, USA) were cultured in RPMI 1640 medium (Mediatech Inc., Herndon, VA, USA) supplemented with 10% (v/v) fetal bovine serum (FBS), 100 μg/mL streptomycin, 100 U/mL penicillin, 100 μg/mL phleomycin (Zeocin), and 10 μg/mL blasticidin S. Human monocyte-macrophage MonoMac-6 cells (Deutsche Sammlung von Mikroorganismen und Zellkulturen GmbH, Braunschweig, Germany) were grown in RPMI 1640 medium supplemented with 10% (v/v) FBS, 10 μg/mL bovine insulin, 100 μg/mL streptomycin, and 100 U/mL penicillin.
A human IL-6 ELISA kit (BD Biosciences, San Jose, CA, USA) was measure IL-6 production. MonoMac-6 cells were plated in 96-well plates at a density of 2 × 10^5 cells/well in culture medium supplemented with 3% (v/v) endotoxin-free FBS. The cells were pretreated with test compound or DMSO for 30 min, followed by addition of 250 ng/mL LPS for 24 h. IC50 values for IL-6 production were calculated by plotting percentage inhibition against the logarithm of inhibitor concentration (at least five points).
A general note: An ELISA detects its analyte on a solid surface through an enzyme-linked reagent.

The target of a further series is T3, JNK2 (Homo sapiens, UniProt P45984).
T3 construct: purchased Eurofins Pharma Discovery (KINOMEscan)
Briefly: KINOMEscan Kd determination, JNK2. Particulars: duplicate, mean, N.B. = no binding at < 30 μM. As for the experimental part:
(§2) Selected compounds were submitted for dissociation constant (Kd) determination using KINOMEscan (Eurofins Pharma Discovery, San Diego, CA, USA), as described previously. […] Primary screening at fixed concentrations of compounds was performed in duplicate.

A short description of series [5]: CellTiter-Glo cytotoxicity in THP-1Blue cells. It is filed as cell-based, human. Particulars: human, THP-1Blue cells; 24-h incubation, up to 50 μM; read-out: THP-1Blue Cell Cytotoxicity IC50. The procedure:
as §1
(§3) Cytotoxicity was analyzed with a CellTiter-Glo Luminescent Cell Viability Assay Kit from Promega (Madison, WI, USA), according to the manufacturer’s protocol. Cells were treated with compounds under investigation and incubated for 24 h. After treatment, the cells were equilibrated to room temperature for 30 min, substrate was added, and the samples were analyzed with a Fluoroscan Ascent FL (Thermo Fisher Scientific, Waltham, MA, USA). The IC50 values were calculated by plotting percentage inhibition against the logarithm of inhibitor concentration (at least five points).
On the technique in general: In ATP-based viability assays light output follows the ATP content of the culture.

Series [6] can be described thus: CellTiter-Glo cytotoxicity in MonoMac-6 cells. Conditions: human, MonoMac-6 cells; 24-h incubation, up to 50 μM; read-out: MonoMac-6 Cell Cytotoxicity IC50. It is filed as cell-based, human. The procedure:
as §1, §3

Another series deals with phospho-c-Jun (Ser63). In words: LPS-induced c-Jun (Ser63) phosphorylation in MonoMac-6 cells (Western blotting). The series is classed as cell-based, human. Conditions: 30 min pretreatment, LPS 250 ng/mL 30 min. The procedure:
MonoMac-6 monocytic cells were pretreated with different concentrations of the compounds under investigation for 30 min and treated with LPS (250 ng/mL) or vehicle for another 30 min. Cells were washed twice with Hanks’ balanced salt solution, and cell lysates were prepared using lysis buffer from the JNK kinase assay kit (Cell Signaling Technology, Danvers, MA). Cell lysates (from 5 × 10^6 cells) were separated on ExpressPlus 4–20% PAGE Gels (GenScript, Piscataway, NJ, USA) using TRIS-MOPS running buffer (GenScript) and transferred to nitrocellulose membranes. The blots were probed with antibodies against c-Jun, phospho-c-Jun (Ser63), and total c-Jun (Cell Signaling Technology, Danvers, MA, USA), followed by horseradish peroxidase-conjugated secondary antibody (Cell Signaling Technology). The blots were developed using SuperSignal West Femto chemiluminescent substrate (Thermo Fisher Scientific) and visualized with a FluorChem FC2 imaging system (Alpha Innotech Corporation, San Leandro, CA, USA). Quantitation of the chemiluminescent signal was performed using AlphaView software (ver. 3.0; Alpha Innotech).

For another series, the system named is NF-κB/AP-1. In words: LPS-induced NF-κB/AP-1 alkaline phosphatase reporter assay in THP1-Blue cells. Particulars: Homo sapiens; 30 min pretreatment, 250 ng/mL LPS for 24 h; read-out: THP-1Blue Cell NF-κB/AP-1 IC50. It is filed as cell-based. The procedure: as §1
Activation of AP-1/NF-κB was measured using an alkaline phosphatase reporter gene assay in THP1-Blue cells. Human monocytic THP-1 Blue cells are stably transfected with a secreted embryonic alkaline phosphatase gene that is under the control of a promoter inducible by NF-κB/AP-1. THP1-Blue cells (2 × 10^5 cells/well) were pretreated with test compound or DMSO for 30 min, followed by addition of 250 ng/mL lipopolysaccharide (LPS) for 24 h, and alkaline phosphatase activity was measured in cell supernatants using QUANTI-Blue mix (InvivoGen) as absorbance at 655 nm and compared with positive control samples (LPS). For selected compounds, the concentrations of inhibitor that caused 50% inhibition of the NF-κB reporter activity (IC50) were calculated.
On the technique in general: In a reporter assay the amount or activity of a reporter protein is the signal.

Series [7] deals with T1, JNK3. Briefly: KINOMEscan Kd determination, JNK3. Particulars: duplicate, mean, N.B. = no binding at < 30 μM. The procedure: as §2
A short description of a further series: Water solubility. The series is classed as physicochemical.
The target of series [8] is JNK1-3. Briefly: KINOMEscan binding, statements for all three JNK isoforms. Conditions: summary of Table 3. As for the experimental part:
as §2

Series [9] has as its target T2, JNK1. Briefly: KINOMEscan Kd determination, JNK1. Conditions: duplicate, mean, N.B. = no binding at < 30 μM. As for the experimental part: as §2
In series [10] the test system is JNK1-3. Also noted: method as in PMID 27027242, PMID 11717429, PMID 16759099, PMID 21666839. Particulars: Figure 1; ref [25],[32],[33],[34]; cited from earlier work.

Read-outs that look alike come from different tables or passages of the source. A value given as a limit tells only on which side of the number the result lay.

T3 sequence (P45984 whole entry): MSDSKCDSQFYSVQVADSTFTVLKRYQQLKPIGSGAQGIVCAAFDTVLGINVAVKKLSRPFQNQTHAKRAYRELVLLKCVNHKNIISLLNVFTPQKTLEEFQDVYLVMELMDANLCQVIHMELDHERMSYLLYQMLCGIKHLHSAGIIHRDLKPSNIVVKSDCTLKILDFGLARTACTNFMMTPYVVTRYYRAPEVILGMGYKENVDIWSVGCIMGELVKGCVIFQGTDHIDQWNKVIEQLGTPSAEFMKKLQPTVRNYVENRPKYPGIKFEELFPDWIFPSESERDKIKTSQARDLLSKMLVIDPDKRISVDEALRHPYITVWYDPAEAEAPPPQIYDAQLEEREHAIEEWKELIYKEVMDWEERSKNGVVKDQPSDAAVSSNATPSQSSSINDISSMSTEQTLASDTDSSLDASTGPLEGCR
T2 sequence (P45983 whole entry): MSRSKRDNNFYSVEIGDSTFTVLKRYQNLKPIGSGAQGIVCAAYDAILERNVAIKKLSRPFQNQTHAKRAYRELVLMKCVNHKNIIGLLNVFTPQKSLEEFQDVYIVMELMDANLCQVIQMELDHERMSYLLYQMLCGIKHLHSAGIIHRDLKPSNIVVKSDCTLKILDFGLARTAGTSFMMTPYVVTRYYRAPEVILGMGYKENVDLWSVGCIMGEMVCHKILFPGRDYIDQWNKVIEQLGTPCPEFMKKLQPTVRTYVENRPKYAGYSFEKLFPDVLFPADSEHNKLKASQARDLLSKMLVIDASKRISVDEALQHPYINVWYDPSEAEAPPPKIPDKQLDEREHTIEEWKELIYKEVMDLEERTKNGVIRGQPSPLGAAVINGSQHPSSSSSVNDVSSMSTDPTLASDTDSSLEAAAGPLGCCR
T1 sequence (P53779 whole entry): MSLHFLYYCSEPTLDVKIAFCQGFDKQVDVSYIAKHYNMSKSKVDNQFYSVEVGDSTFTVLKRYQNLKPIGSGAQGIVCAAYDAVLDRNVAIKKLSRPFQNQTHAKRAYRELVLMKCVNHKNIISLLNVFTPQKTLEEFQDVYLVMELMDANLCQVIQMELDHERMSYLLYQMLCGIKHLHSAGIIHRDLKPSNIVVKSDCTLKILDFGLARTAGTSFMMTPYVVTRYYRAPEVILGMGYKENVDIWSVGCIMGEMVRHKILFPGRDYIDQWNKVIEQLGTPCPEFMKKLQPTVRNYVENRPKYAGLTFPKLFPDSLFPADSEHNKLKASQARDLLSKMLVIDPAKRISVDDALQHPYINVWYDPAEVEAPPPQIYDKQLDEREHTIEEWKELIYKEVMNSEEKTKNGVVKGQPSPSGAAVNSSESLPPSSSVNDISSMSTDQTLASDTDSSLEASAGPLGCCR

`Cc1ccc(-c2ncn(-c3ccc(Nc4nccc(-c5cccc(N6CCOCC6)c5)n4)cc3)n2)cn1` [SR-3306]: the values for the IC50 at JNK3 [1] and on JNK1 [2] were 67 nM and 159 nM, respectively.

`ON=C1c2ccccc2-c2nc3ccccc3nc21` [IQ-1, 11H-indeno[1,2-b]quinoxalin-11-one oxime]: the IC50 in the series on IL-6 [3] was 3400 ± 800 nM.

Take `ON=C1c2ccccc2-c2nc3c(CN4CCOCC4)cccc3nc21` [Compound 4m, 6-(Morpholinomethyl)-11H-indeno[1,2-b]quinoxalin-11-one Oxime]: the melting point (usually the temperature, or range, at which the solid turns liquid) is 210 to 211 °C. Also, the IC50 in the series with IL-6 [4] is 800 ± 100 nM. For the same compound, at JNK2, the Kd (in general, a measure of binding affinity in units of concentration) was 880 ± 100 nM. Further, the IC50 at 24 h in series [5] is greater than 50000 nM. The IC50 at 24 h in series [6] is greater than 50000 nM. In addition, in the series on phospho-c-Jun (Ser63), the “Effect on LPS-induced c-Jun (Ser63) phosphorylation” value was “inhibited c-Jun phosphorylation”. Also, in the series on NF-κB/AP-1, the IC50 was found to be 100 ± 50 nM. On JNK3 [7], the Kd amounted to 910 ± 300 nM. In addition, the Water solubility result in “Water solubility” is recorded as “high water solubility”. Moreover, the “Binding affinity (Kd) for all three JNK isoforms, in words” value on JNK1-3 [8] was “relatively high binding affinity”. For the same compound, the Kd on JNK1 [9] came out at 1100 ± 100 nM.

For the compound `ON=C1c2ccccc2-c2nc3cc(F)c(F)cc3nc21` [Compound 4f, 7,8-Difluoro-11H-indeno[1,2-b]quinoxalin-11-one Oxime], the melting point was 250 to 251 °C. Further, in the series on IL-6 [4], the IC50 came out at 14000 ± 2800 nM. Also, on JNK2, the “JNK2 Kd” value is “did not bind” and the Kd was greater than 30000 nM. Further, the IC50 at 24 h in [5] is greater than 50000 nM. For the same compound, in [6], the IC50 at 24 h is greater than 50000 nM. In the series on phospho-c-Jun (Ser63), the “Effect on LPS-induced c-Jun (Ser63) phosphorylation” value is on record as “inhibited c-Jun phosphorylation”. Moreover, the IC50 in the series with NF-κB/AP-1 was determined as 1100 ± 400 nM. Also, the Kd at JNK3 [7] turned out to be 520 ± 300 nM. For the same compound, the Kd on JNK1 [9] was 170 ± 40 nM.

In the case of SP600125, the IC50 in the series on JNK1-3 [10] was 40 to 90 nM.

(Values after PMC8464905, “Novel c-Jun N-Terminal Kinase (JNK) Inhibitors with an 11H-Indeno[1,2-b]quinoxalin-11-one Scaffold” (Molecules, 2021).)
